Patent US20120035241A1, “USE OF INHIBITORS OF PLAC8 ACTIVITY FOR THE MODULATION OF ADIPOGENESIS” (SANOFI-AVENTIS, priority 2008, published 2012)

What was measured:
[1] = test system: SCAT and VAT gene expression; assay: cDNA microarray of visceral and subcutaneous adipose tissue of high fat diet fed mice treated with rimonabant; assay type: in vivo; conditions: C57BL/6J mice, 6 months HFD, then one month rimonabant 10 mg/kg/day; genes up-regulated by HFD (Plac8 and Rp9h down-regulated)
Description: C57BL/6J mice, which are obesity-prone (Collins et al. 2004), were fed for 6 months with a high fat diet (HFD).
RNA from 5 different mice per group was extracted from visceral and subcutaneous adipose tissues using peqGOLD Trifast™ (peqlab) and chloroform-isoamylalcool (24:1) extraction. RNA was precipitated with isopropanol and purified by passage over RNeasy columns (Qiagen). RNA quality was checked before and after amplification with a Bioanalyzer 2100 (Agilent). RNA was reverse transcribed and RNA was amplified with MessageAmp™ kit (Ambion). A Mouse Universal Reference (Clontech) was similarly amplified and both adipose tissue and reference RNAs were labeled by an indirect technique with Cy5 and Cy3 according to published protocols (De Fourmestraux et al., 2004). Labeled RNAs were hybridized to microarrays containing 17664 cDNAs prepared at the DNA Array Facility of the University of Lausanne. Scanning, image, and quality control analyses were performed as previously published (de Fourmestraux et al., J. Biol. Chem. 2004 279:50743-53). Data were expressed as log2 intensity ratios (Cy5/Cy3), normalized with a print tip locally weighted linear regression (Lowess) method and filtered based on spot quality and incomplete annotation. All analyses were performed with the R software for statistical computing available at the Comprehensive R Archive Network (cran.us.r-project.org/).

[2] = test system: Plac8; assay: Retroviral transduction of 3T3-L1 cells with shRNA, Plac8 mRNA by RT-PCR; assay type: cell-based, mouse; conditions: 3T3-L1 cells infected 6 hours with retroviral vectors, day 0 prior differentiation, RT-PCR (FIG. 3B)
Protocol: 3T3-L1 cells were cultured in DMEM (Gibco) with 10% FBS (Gibco) at 5% CO2. After retroviral infection (see below), cells were allow to grow to confluence in either 100-mm or 60-mm dishes in DMEM with 10% FBS. Once confluence was reached, cells were exposed to differentiation medium containing dexamethasone (1 μM), insulin (5 μg/ml), and isobutylmethylxanthine ([…]) (DMI). After 2 days cells were maintained in medium containing insulin (5 μg/ml) until ready for harvest at 7 days.
Retroviruses were constructed in the RNAi-Ready pSIREN-RetroQ ZsGreen (pSIREN Clontech) or pMSCV puromycin plasmid (pMSCV, Clontech). Viral constructs were transfected using calcium-phosphate method described in Jordan, M., et al. (2004) into 293 HEK packaging cells along with constructs encoding gag-pol and the VSV-G protein. Supernatants were harvested after 48 h in presence of […] of Trichostatin A (Sigma) and either used immediately or snap frozen and stored at −80° C. for later use. Viral supernatants were added to the cells for 6 hours in the presence of polybrene (4 μg/ml) and diluted two times with fresh medium for the next 15 hours.
Total RNA was isolated from cultured cells using peqGOLD TriFast reagent according to the manufacturer's instructions (Axonlab). First strand cDNA was synthesized from 0.5 μg of total RNA using random primers and Superscript II (Invitrogen). […]

| Molecule | expression of 34 gene candidates regulated by HFD in SCAT and VAT [1] | knockdown for Plac8 (mRNA) [2] |
| --- | --- | --- |
| Cc1c(C(=O)NN2CCCCC2)nn(-c2ccc(Cl)cc2Cl)c1-c1ccc(Cl)cc1 [rimonabant] | normalized | – |
| shLuc: negative control siRNA sequence against luciferase, SEQ ID NO. 8 (nucleic acid, listed as DNA, chemistry not fully specified) GATCCGTGCGTTGCTAGTACCAATTCAAGAGATTGGTACTAGCAACGCACTTTTTTACGCGTG | – | no inhibition |
